Marks after values point to notes of the source that are not given here.
Tested on: adults with EDS associated with OSA
Test: Long-term OLE trial in OSA: vital signs, antihypertensive medication use, AEs of hypertension/increased BP
Type: in vivo, human
Description: An exploratory analysis of data from one 12-week randomized, controlled trial (Schweitzer P K, et al. Am J Respir Crit Care Med. 2019; 199(11):1421-31) and 1 long-term open-label extension (OLE) trial in adults with EDS (Epworth Sleepiness Scale score ≥10) associated with OSA (Malhotra A, et al. Sleep. 2020; 43(2):zsz220) was carried out. Participants with current/prior use of primary OSA therapy (positive airway pressure [PAP], oral pressure therapy, oral appliance, or upper airway stimulation) were eligible, regardless of the level of adherence to primary OSA therapy; participants who had not attempted to use primary OSA therapy were excluded. Adherence to primary OSA therapy was defined as PAP use ≥4 hours/night on ≥70% of nights/week, historical report (with investigator concurrence) of oral appliance use on ≥70% of nights, or effective surgical intervention. Nonadherence to primary OSA therapy was defined as device use at a level lower than specific above, no device use at all, or surgical intervention deemed no longer effective. Participants received placebo or solriamfetol 37.5 (12-week trial only), 75, 150, or 300 mg/day for 12 weeks (12-week trial) or ≤40 weeks (OLE trial). Vital signs, antihypertensive medication use, and adverse events (AEs) were monitored throughout the studies. Baseline demographics, CV comorbidities, and concomitant medications, the percentage of participants who initiated antihypertensive medication use during treatment, and the incidence of and discontinuations due to AEs of hypertension/increased BP were summarized for the safety population (participants who received ≥1 dose of study medication).

SMILES: NC(=O)OC[C@H](N)Cc1ccccc1 [Solriamfetol, (R)-2-amino-3-phenylpropyl carbamate]
- change in DBP from baseline to week 40 (OLE): 0.29 mm Hg
- change in HR from baseline to week 40 (OLE): −1.94 bpm
- change in SBP from baseline to week 40 (OLE): −0.49 mm Hg
- total participants with AEs of hypertension/increased BP (OLE): 22 participants
- serious AE of cerebrovascular accident (OLE trial): 1
- Discontinuation due to AE of HTN/increased BP (OLE, 75 mg): 1 (0.2)^d n (%)
- Initiated anti-HTN (OLE, 75 mg): 3 (6.1) n (%)
- AE of HTN/increased BP (OLE, 75 mg, % of participants that ever received the dose level (n = 417)): 4 (1.0) n (%)
- Discontinuation due to AE of HTN/increased BP, (%) (OLE, 150 mg): (0.2)^d %
- Initiated anti-HTN (OLE, 150 mg): 2 (1.4) n (%)
- AE of HTN/increased BP, (%) (OLE, 150 mg, % of participants that ever received the dose level (n = 402)): (1.5) %
- Discontinuation due to AE of HTN/increased BP, (%) (OLE, 300 mg): (0.3)^e %
- Initiated anti-HTN (OLE, 300 mg): 3 (1.3) n (%)
- AE of HTN/increased BP, (%) (OLE, 300 mg, % of participants that ever received the dose level (n = 326)): (3.7) %

Reference: patent US20240358668A1, “METHODS AND CO[…] AM[…] CARD[…] USING (R)-2-AMINO-3-PH[…]” (AXSOME THERAPEUTICS, INC., priority 2021, published 2024)
